≈ marks a conversion by molar mass, not a printed value. Blank lines part the entries; values can stand above or below the compound they belong to.
Tests used:
[1] = Inhibition of recombinant Brugia malayi TMK using dTMP as substrate by pyruvate kinase/lactate dehydrogenase coupled assay
Brugia malayi [2] = test: Antifilarial activity against adult Brugia malayi assessed as motility reduction after 1 hr by microscopic analysis; assay type: functional, organism-based
Brugia malayi [3] = test: Antifilarial activity against Brugia malayi microfilariae assessed as motility reduction after 1 hr by microscopic analysis; assay type: functional, organism-based
Brugia malayi [4] = test: Antifilarial activity against adult Brugia malayi assessed as reduction in viability at 10 uM/ml after 24 to 48 hrs by MTT assay; assay type: functional
Brugia malayi [5] = test: Antifilarial activity against adult Brugia malayi assessed as reduction in viability at 5 uM/ml after 24 to 48 hrs by MTT assay; assay type: functional
Brugia malayi [6] = test: Antifilarial activity against adult Brugia malayi assessed as reduction in viability at 2.5 uM/ml after 24 to 48 hrs by MTT assay; assay type: functional
Brugia malayi [7] = test: Antifilarial activity against adult Brugia malayi assessed as reduction in viability at 1.25 uM/ml after 24 to 48 hrs by MTT assay; assay type: functional
Brugia malayi [8] = test: Antifilarial activity against adult Brugia malayi assessed as reduction in viability at 0.6 uM/ml after 24 to 48 hrs by MTT assay; assay type: functional, organism-based
Brugia malayi [9] = test: Antifilarial activity against adult Brugia malayi assessed as reduction in viability at 0.3 uM/ml after 24 to 48 hrs by MTT assay; assay type: functional, organism-based
Brugia malayi [10] = test: Antifilarial activity against adult Brugia malayi assessed as reduction in viability at 0.15 uM/ml after 24 to 48 hrs by MTT assay; assay type: functional, organism-based
Brugia malayi [11] = test: Antifilarial activity against adult Brugia malayi assessed as motility reduction at 10 uM/ml after 1 hr by microscopic analysis; assay type: functional
Brugia malayi [12] = test: Antifilarial activity against adult Brugia malayi assessed as motility reduction at 5 uM/ml after 1 hr by microscopic analysis; assay type: functional
Brugia malayi [13] = test: Antifilarial activity against adult Brugia malayi assessed as motility reduction at 2.5 uM/ml after 1 hr by microscopic analysis; assay type: functional
Brugia malayi [14] = test: Antifilarial activity against adult Brugia malayi assessed as motility reduction at 1.25 uM/ml after 1 hr by microscopic analysis; assay type: functional
Brugia malayi [15] = test: Antifilarial activity against adult Brugia malayi assessed as motility reduction at 0.6 uM/ml after 1 hr by microscopic analysis; assay type: functional, organism-based
Brugia malayi [16] = test: Antifilarial activity against adult Brugia malayi assessed as motility reduction at 0.3 uM/ml after 1 hr by microscopic analysis; assay type: functional, organism-based
Brugia malayi [17] = test: Antifilarial activity against adult Brugia malayi assessed as motility reduction at 0.15 uM/ml after 1 hr by microscopic analysis; assay type: functional, organism-based
Brugia malayi [18] = test: Antifilarial activity against Brugia malayi microfilariae assessed as motility reduction at 10 uM/ml after 1 hr by microscopic analysis; assay type: functional
Brugia malayi [19] = test: Antifilarial activity against Brugia malayi microfilariae assessed as motility reduction at 5 uM/ml after 1 hr by microscopic analysis; assay type: functional
Brugia malayi [20] = test: Antifilarial activity against Brugia malayi microfilariae assessed as motility reduction at 2.5 uM/ml after 1 hr by microscopic analysis; assay type: functional
Brugia malayi [21] = test: Antifilarial activity against Brugia malayi microfilariae assessed as motility reduction at 1.25 uM/ml after 1 hr by microscopic analysis; assay type: functional
Brugia malayi [22] = test: Antifilarial activity against Brugia malayi microfilariae assessed as motility reduction at 0.6 uM/ml after 1 hr by microscopic analysis; assay type: functional, organism-based
Brugia malayi [23] = test: Antifilarial activity against Brugia malayi microfilariae assessed as motility reduction at 0.3 uM/ml after 1 hr by microscopic analysis; assay type: functional, organism-based
Brugia malayi [24] = test: Antifilarial activity against Brugia malayi microfilariae assessed as motility reduction at 0.15 uM/ml after 1 hr by microscopic analysis; assay type: functional, organism-based
[25] = Cytotoxicity against African green monkey Vero cells after 72 hrs by resazurin dye-based fluorometric analysis; assay type: cell-based; conditions: chlorocebus sabaeus
[26] = Therapeutic index, ratio of CC50 for monkey VERO cells to IC50 for adult Brugia malayi; assay type: cell-based; conditions: for selectivity ratio: Vero cells, read-out: Ratio CC50/IC50
[27] = Therapeutic index, ratio of CC50 for monkey VERO cells to IC50 for Brugia malayi microfilariae; assay type: cell-based; conditions: for selectivity ratio: Vero cells, read-out: Ratio CC50/IC50
Brugia malayi [28] = test: Antifilarial activity against adult Brugia malayi assessed as reduction in viability at 0.625 uM/ml after 24 to 48 hrs by MTT assay; assay type: functional
Brugia malayi [29] = test: Antifilarial activity against adult Brugia malayi assessed as motility reduction at 0.625 uM/ml after 1 hr by microscopic analysis; assay type: functional
Brugia malayi [30] = test: Antifilarial activity against Brugia malayi microfilariae assessed as motility reduction at 0.625 uM/ml after 1 hr by microscopic analysis; assay type: functional

Ki [1]: 21.6 µM
Compound: CC(C)c1cc(/C=N/Nc2nc3ccccc3s2)cc(/C=C/C(=O)c2ccc(F)cc2)c1O

Ki [1]: 22.8 µM
Compound: CC(C)c1cc(/C=N/Nc2nc3ccccc3s2)cc(/C=C/C(=O)c2ccc(Cl)cc2)c1O

Ki [1]: 16.5 µM
Compound: Cc1cc(/C=N/Nc2nc3ccccc3s2)cc(/C=C/C(=O)c2ccccc2)c1O

Ki [1]: 20.3 µM
Compound: CC(C)(C)c1cc(/C=N/Nc2nc3ccccc3s2)cc(/C=C/C(=O)c2ccccc2)c1O

MIC (Brugia malayi [2]): 8.9 µM
MIC (Brugia malayi [3]): 10 µM
Compound: IVERMECTIN [listing 1 of 2 here]
inhibition (Brugia malayi [4]): 76%
inhibition (Brugia malayi [5]): 62.9%
inhibition (Brugia malayi [6]): 50.5%
inhibition (Brugia malayi [7]): 34.9%
inhibition (Brugia malayi [8]): 22.9%
inhibition (Brugia malayi [9]): 10.7%
inhibition (Brugia malayi [10]): 15.7%
inhibition (Brugia malayi [11]): 100%
inhibition (Brugia malayi [12]): 100%
inhibition (Brugia malayi [13]): 100%
inhibition (Brugia malayi [14]): 100%
inhibition (Brugia malayi [15]): 100%
inhibition (Brugia malayi [16]): 50%
inhibition (Brugia malayi [17]): 1%
inhibition (Brugia malayi [18]): 100%
inhibition (Brugia malayi [19]): 75%
inhibition (Brugia malayi [20]): 75%
inhibition (Brugia malayi [21]): 75%
inhibition (Brugia malayi [22]): 50%
inhibition (Brugia malayi [23]): 0%
inhibition (Brugia malayi [24]): 0%

Ki [1]: 30.4 µM
Compound: CCc1cc(/C=N/Nc2nc3ccccc3s2)cc(/C=C/C(=O)c2ccc(OC)cc2)c1O

Ki [1]: 3.17 µM
Compound: CC(C)(C)c1cc(/C=N/Nc2nc3ccccc3s2)cc(/C=C/C(=O)c2ccc(F)cc2)c1O

Ki [1]: 4.69 µM
Compound: Cc1ccc(C(=O)/C=C/c2cc(/C=N/Nc3nc4ccccc4s3)cc(C(C)(C)C)c2O)cc1

Ki [1]: 2.49 µM
IC50 (Brugia malayi [2]): 4.34 µM
MIC (Brugia malayi [2]): 10 µM (≈ 4.28 µg/mL)
IC50 (Brugia malayi [3]): 2.64 µM
MIC (Brugia malayi [3]): 10 µM (≈ 4.28 µg/mL)
Compound: CCc1cc(/C=N/Nc2nc3ccccc3s2)cc(/C=C/C(=O)c2ccccc2)c1O
CC50 at 72 h [25]: 48.6 µM
selectivity ratio [26]: 11.2
selectivity ratio [27]: 18.4
inhibition at 10 µM (Brugia malayi [4]): 90.4%
inhibition at 5 µM (Brugia malayi [5]): 48%
inhibition at 2.5 µM (Brugia malayi [6]): 30%
inhibition at 1.25 µM (Brugia malayi [7]): 10.5%
inhibition at 10 µM (Brugia malayi [11]): 100%
inhibition at 5 µM (Brugia malayi [12]): 50%
inhibition at 2.5 µM (Brugia malayi [13]): 1%
inhibition at 1.25 µM (Brugia malayi [14]): 1%
inhibition at 10 µM (Brugia malayi [18]): 100%
inhibition at 5 µM (Brugia malayi [19]): 75%
inhibition at 2.5 µM (Brugia malayi [20]): 75%
inhibition at 1.25 µM (Brugia malayi [21]): 1%

Ki [1]: 26.6 µM
Compound: CCCc1cc(/C=N/Nc2nc3ccccc3s2)cc(/C=C/C(=O)c2ccc(Cl)cc2)c1O

Ki [1]: 3.09 µM
Compound: COc1ccc(C(=O)/C=C/c2cc(/C=N/Nc3nc4ccccc4s3)cc(C(C)C)c2O)cc1

Compound: IVERMECTIN [listing 2 of 2 here]
Ratio CC50/IC50 ([26]; vero): 29.5
Ratio CC50/IC50 ([27]; vero): 13.28

Ki [1]: 27.1 µM
Compound: CCCc1cc(/C=N/Nc2nc3ccccc3s2)cc(/C=C/C(=O)c2ccc(OC)c(OC)c2)c1O

Ki [1]: 4.89 µM
Compound: CCC(C)c1cc(/C=N/Nc2nc3ccccc3s2)cc(/C=C/C(=O)c2ccc(OC)cc2)c1O (stereo not drawn)

Ki [1]: 50.6 µM
Compound: COc1ccc(C(=O)/C=C/c2cc(/C=N/Nc3nc4ccccc4s3)cc(C(C)C)c2O)cc1OC

Ki [1]: 2.02 µM
IC50 (Brugia malayi [2]): 2.12 µM
MIC (Brugia malayi [2]): 5 µM (≈ 2.24 µg/mL)
IC50 (Brugia malayi [3]): 1.63 µM
MIC (Brugia malayi [3]): 5 µM (≈ 2.24 µg/mL)
Compound: CC(C)c1cc(/C=N/Nc2nc3ccccc3s2)cc(/C=C/C(=O)c2cccs2)c1O
CC50 at 72 h [25]: 95.3 µM
selectivity ratio [26]: 44.9
selectivity ratio [27]: 58.5
inhibition at 5 µM (Brugia malayi [5]): 85%
inhibition at 2.5 µM (Brugia malayi [6]): 40.3%
inhibition at 1.25 µM (Brugia malayi [7]): 9.3%
inhibition at 0.625 µM (Brugia malayi [28]): 8.7%
inhibition at 5 µM (Brugia malayi [12]): 100%
inhibition at 2.5 µM (Brugia malayi [13]): 50%
inhibition at 1.25 µM (Brugia malayi [14]): 1%
inhibition at 0.625 µM (Brugia malayi [29]): 1%
inhibition at 5 µM (Brugia malayi [19]): 100%
inhibition at 2.5 µM (Brugia malayi [20]): 75%
inhibition at 1.25 µM (Brugia malayi [21]): 50%
inhibition at 0.625 µM (Brugia malayi [30]): 1%

Ki [1]: 7.91 µM
Compound: CCC(C)c1cc(/C=N/Nc2nc3ccccc3s2)cc(/C=C/C(=O)c2ccc(F)cc2)c1O (stereo not drawn)

Source: ChEMBL document CHEMBL3632586, “Designing, synthesis of selective and high-affinity chalcone-benzothiazole hybrids as Brugia malayi thymidylate kinase inhibitors: In vitro validation and docking studies” (Eur J Med Chem, 2015)
